Results as given in patent US12226424B2, “Target protein degradation compounds, their anti-tumor use, their intermediates and use of intermediates” (ShanghaiTech University, priority 2018, dated 2025).

test system: CDK4/6 protein; experiment: Western-blot determination of CDK4/6 protein degradation (DC50) in T-47D cells; type: cell-based, human; details: 24 h drug treatment, read-out: DC50(nM)/T-47D cell line

DC50 [nM] | SMILES
0.04 to 0.2 | CN(C)C(=O)c1cc2cnc(Nc3ccc(N4CCN(C(=O)COCCOCCSc5cccc6c5C(=O)N(C5CCC(=O)NC5=O)C6=O)CC4)cn3)nc2n1C1CCCC1 (stereo not drawn) [SIAIS219112, 7-cyclopentyl-2-((5-(4-(2-(2-(2-((2-(2,6-dioxopiperidin-3-yl)-1,3-dioxoisoindolin-4-yl)thio)ethoxy)ethoxy)acetyl)piperazin-1-yl)pyridin-2-yl)amino)-N,N-dimethyl-7H-pyrrolo[2,3-d]pyrimidine-6-carboxamide]
< 1 | CN(C)C(=O)c1cc2cnc(Nc3ccc(N4CCN(C(=O)CCSc5cccc6c5CN(C5CCC(=O)NC5=O)C6=O)CC4)cn3)nc2n1C1CCCC1 (stereo not drawn) [SIAIS219087, 7-cyclopentyl-2-((5-(4-(3-((2-(2,6-dioxopiperidin-3-yl)-1-oxoisoindolin-4-yl)thio)propanoyl)piperazin-1-yl)pyridin-2-yl)amino)-N,N-dimethyl-7H-pyrrolo[2,3-d]pyrimidine-6-carboxamide]
1 to 10 | CC(=O)c1c(C)c2cnc(Nc3ccc(N4CCN(C(=O)CCCCSc5cccc6c5C(=O)N(C5CCC(=O)NC5=O)C6=O)CC4)cn3)nc2n(C2CCCC2)c1=O (stereo not drawn) [SIAIS184088, 4-((5-(4-(6-((6-acetyl-8-cyclopentyl-5-methyl-7-oxo-7,8-dihydropyrido[2,3-d]pyrimidin-2-yl)amino)pyridin-3-yl)piperazin-1-yl)-5-oxopentyl)thio)-2-(2,6-dioxopiperidin-3-yl)isoindoline-1,3-dione]
< 0.04 | CN(C)C(=O)c1cc2cnc(Nc3ccc(N4CCN(C(=O)CSc5cccc6c5C(=O)N(C5CCC(=O)NC5=O)C6=O)CC4)cn3)nc2n1C1CCCC1 (stereo not drawn) [SIAIS219100, 7-cyclopentyl-2-((5-(4-(2-((2-(2,6-dioxopiperidin-3-yl)-1,3-dioxoisoindolin-4-yl)thio)acetyl)piperazin-1-yl)pyridin-2-yl)amino)-N,N-dimethyl-7H-pyrrolo[2,3-d]pyrimidine-6-carboxamide]
< 1 | CN(C)C(=O)c1cc2cnc(Nc3ccc(N4CCN(C(=O)CCCCCCSc5cccc6c5CN(C5CCC(=O)NC5=O)C6=O)CC4)cn3)nc2n1C1CCCC1 (stereo not drawn) [SIAIS219091, 7-cyclopentyl-2-((5-(4-(7-((2-(2,6-dioxopiperidin-3-yl)-1-oxoisoindolin-4-yl)thio)heptanoyl)piperazin-1-yl)pyridin-2-yl)amino)-N,N-dimethyl-7H-pyrrolo[2,3-d]pyrimidine-6-carboxamide]
< 1 | CN(C)C(=O)c1cc2cnc(Nc3ccc(N4CCN(C(=O)CCCCSc5cccc6c5C(=O)N(C5CCC(=O)NC5=O)C6=O)CC4)cn3)nc2n1C1CCCC1 (stereo not drawn) [SIAIS219103, 7-cyclopentyl-2-((5-(4-(5-((2-(2,6-dioxopiperidin-3-yl)-1,3-dioxoisoindolin-4-yl)thio)pentanoyl)piperazin-1-yl)pyridin-2-yl)amino)-N,N-dimethyl-7H-pyrrolo[2,3-d]pyrimidine-6-carboxamide]
5 | Cc1nc2c(F)cc(-c3nc(Nc4ccc(CN5CCN(C(=O)CCCCCCSc6cccc7c6CN(C6CCC(=O)NC6=O)C7=O)CC5)cn4)ncc3F)cc2n1C(C)C (stereo not drawn) [SIAIS262169, 3-(4-((7-(4-((6-((5-fluoro-4-(4-fluoro-1-isopropyl-2-methyl-1H-benzo[d]imidazol-6-yl)pyrimidin-2-yl)amino)pyridin-3-yl)methyl)piperazin-1-yl)-7-oxoheptyl)thio)-1-oxoisoindolin-2-yl)piperidine-2,6-dione]
< 1 | CC(=O)c1c(C)c2cnc(Nc3ccc(N4CCN(C(=O)CCCCCCSc5cccc6c5CN(C5CCC(=O)NC5=O)C6=O)CC4)cn3)nc2n(C2CCCC2)c1=O (stereo not drawn) [SIAIS219055, 3-(4-((7-(4-(6-((6-acetyl-8-cyclopentyl-5-methyl-7-oxo-7,8-dihydropyrido[2,3-d]pyrimidin-2-yl)amino)pyridin-3-yl)piperazin-1-yl)-7-oxoheptyl)thio)-1-oxoisoindolin-2-yl)piperidine-2,6-dione]
50 | Cc1nc2c(F)cc(-c3nc(Nc4ccc(CN5CCN(C(=O)CCCCCCCCCCSc6cccc7c6CN(C6CCC(=O)NC6=O)C7=O)CC5)cn4)ncc3F)cc2n1C(C)C (stereo not drawn) [SIAIS262170, 3-(4-((11-(4-((6-((5-fluoro-4-(4-fluoro-1-isopropyl-2-methyl-1H-benzo[d]imidazol-6-yl)pyrimidin-2-yl)amino)pyridin-3-yl)methyl)piperazin-1-yl)-11-oxoundecyl)thio)-1-oxoisoindolin-2-yl)piperidine-2,6-dione]
0.5 to 5 | Cc1nc2c(F)cc(-c3nc(Nc4ccc(CN5CCN(C(=O)CSc6cccc7c6CN(C6CCC(=O)NC6=O)C7=O)CC5)cn4)ncc3F)cc2n1C(C)C (stereo not drawn) [SIAIS262164, 3-(4-((2-(4-((6-((5-fluoro-4-(4-fluoro-1-isopropyl-2-methyl-1H-benzo[d]imidazol-6-yl)pyrimidin-2-yl)amino)pyridin-3-yl)methyl)piperazin-1-yl)-2-oxoethyl)thio)-1-oxoisoindolin-2-yl)piperidine-2,6-dione]
< 1 | CC(=O)c1c(C)c2cnc(Nc3ccc(N4CCN(C(=O)CCCCCSc5cccc6c5CN(C5CCC(=O)NC5=O)C6=O)CC4)cn3)nc2n(C2CCCC2)c1=O (stereo not drawn) [SIAIS219054, 3-(4-((6-(4-(6-((6-acetyl-8-cyclopentyl-5-methyl-7-oxo-7,8-dihydropyrido[2,3-d]pyrimidin-2-yl)amino)pyridin-3-yl)piperazin-1-yl)-6-oxohexyl)thio)-1-oxoisoindolin-2-yl)piperidine-2,6-dione]
0.04 to 0.2 | CN(C)C(=O)c1cc2cnc(Nc3ccc(N4CCN(C(=O)COCCOCCOCCOCCOCCSc5cccc6c5CN(C5CCC(=O)NC5=O)C6=O)CC4)cn3)nc2n1C1CCCC1 (stereo not drawn) [SIAIS219110, 7-cyclopentyl-2-((5-(4-(17-((2-(2,6-dioxopiperidin-3-yl)-1-oxoisoindolin-4-yl)thio)-3,6,9,12,15-pentaoxaheptadecanoyl)piperazin-1-yl)pyridin-2-yl)amino)-N,N-dimethyl-7H-pyrrolo[2,3-d]pyrimidine-6-carboxamide]
< 1 | CC(=O)c1c(C)c2cnc(Nc3ccc(N4CCN(C(=O)CSc5cccc6c5CN(C5CCC(=O)NC5=O)C6=O)CC4)cn3)nc2n(C2CCCC2)c1=O (stereo not drawn) [SIAIS219051, 3-(4-((2-(4-(6-((6-acetyl-8-cyclopentyl-5-methyl-7-oxo-7,8-dihydropyrido[2,3-d]pyrimidin-2-yl)amino)pyridin-3-yl)piperazin-1-yl)-2-oxoethyl)thio)-1-oxoisoindolin-2-yl)piperidine-2,6-dione]
1 to 10 | CC(=O)c1c(C)c2cnc(Nc3ccc(N4CCN(C(=O)CCCSc5cccc6c5C(=O)N(C5CCC(=O)NC5=O)C6=O)CC4)cn3)nc2n(C2CCCC2)c1=O (stereo not drawn) [SIAIS184087, 4-((4-(4-(6-((6-acetyl-8-cyclopentyl-5-methyl-7-oxo-7,8-dihydropyrido [2,3-d]pyrimidin-2-yl)amino)pyridin-3-yl)piperazin-1-yl)-4-oxobutyl)thio)-2-(2,6-dioxo Piperidin-3-yl)isoindoline-1,3-dione]
1 to 10 | CC(=O)c1c(C)c2cnc(Nc3ccc(N4CCN(C(=O)CCCCCSc5cccc6c5C(=O)N(C5CCC(=O)NC5=O)C6=O)CC4)cn3)nc2n(C2CCCC2)c1=O (stereo not drawn) [SIAIS184089, 4-((6-(4-(6-((6-acetyl-8-cyclopentyl-5-methyl-7-oxo-7,8-dihydropyrido[2,3-d]pyrimidin-2-yl)amino)pyridin-3-yl)piperazin-1-yl)-6-oxohexyl)thio)-2-(2,6-dioxopiperidin-3-yl)isoindoline-1,3-dione]
> 500 | CC(=O)c1c(C)c2cnc(Nc3ccc(N4CCN(C(=O)CCSc5cccc6c5C(=O)N(C5CCC(=O)NC5=O)C6=O)CC4)cn3)nc2n(C2CCCC2)c1=O (stereo not drawn) [SIAIS184086, 4-((3-(4-(6-((6-acetyl-8-cyclopentyl-5-methyl-7-oxo-7,8-dihydropyrido[2,3-d]pyrimidin-2-yl)amino)pyridin-3-yl)piperazin-1-yl)-3-oxopropyl)thio)-2-(2,6-dioxopiperidin-3-yl)isoindoline-1,3-dione]
< 1 | CC(=O)c1c(C)c2cnc(Nc3ccc(N4CCN(C(=O)CCSc5cccc6c5CN(C5CCC(=O)NC5=O)C6=O)CC4)cn3)nc2n(C2CCCC2)c1=O (stereo not drawn) [SIAIS219052, 3-(4-((3-(4-(6-((6-acetyl-8-cyclopentyl-5-methyl-7-oxo-7,8-dihydropyrido[2,3-d]pyrimidin-2-yl)amino)pyridin-3-yl)piperazin-1-yl)-3-oxopropyl)thio)-1-oxoisoindolin-2-yl)piperidine-2,6-dione]
1 to 10 | CN(C)C(=O)c1cc2cnc(Nc3ccc(N4CCN(C(=O)CCCSc5cccc6c5C(=O)N(C5CCC(=O)NC5=O)C6=O)CC4)cn3)nc2n1C1CCCC1 (stereo not drawn) [SIAIS219102, 7-cyclopentyl-2-((5-(4-(4-((2-(2,6-dioxopiperidin-3-yl)-1,3-dioxoisoindolin-4-yl)thio)butanoyl)piperazin-1-yl)pyridin-2-yl)amino)-N,N-dimethyl-7H-pyrrolo[2,3-d]pyrimidine-6-carboxamide]
0.5 to 5 | Cc1nc2c(F)cc(-c3nc(Nc4ccc(CN5CCN(C(=O)CCCCSc6cccc7c6CN(C6CCC(=O)NC6=O)C7=O)CC5)cn4)ncc3F)cc2n1C(C)C (stereo not drawn) [SIAIS262167, 3-(4-((5-(4-((6-((5-fluoro-4-(4-fluoro-1-isopropyl-2-methyl-1H-benzo[d]imidazol-6-yl)pyrimidin-2-yl)amino)pyridin-3-yl)methyl)piperazin-1-yl)-5-oxopentyl)thio)-1-oxoisoindolin-2-yl)piperidine-2,6-dione]

same assay, conditions: read-out: DC50(nM)/T-47D cell line, 24 h drug treatment

SMILES | DC50 [nM]
CN(C)C(=O)c1cc2cnc(Nc3ccc(N4CCN(C(=O)COCCSc5cccc6c5CN(C5CCC(=O)NC5=O)C6=O)CC4)cn3)nc2n1C1CCCC1 (stereo not drawn) [SIAIS219106, 7-cyclopentyl-2-((5-(4-(2-(2-((2-(2,6-dioxopiperidin-3-yl)-1-oxoisoindolin-4-yl)thio)ethoxy)acetyl)piperazin-1-yl)pyridin-2-yl)amino)-N,N-dimethyl-7H-pyrrolo[2,3-d]pyrimidine-6-carboxamide] | 0.04 to 0.2
CN(C)C(=O)c1cc2cnc(Nc3ccc(N4CCN(C(=O)CCCCCCSc5cccc6c5C(=O)N(C5CCC(=O)NC5=O)C6=O)CC4)cn3)nc2n1C1CCCC1 (stereo not drawn) [SIAIS219105, 7-cyclopentyl-2-((5-(4-(7-((2-(2,6-dioxopiperidin-3-yl)-1,3-dioxoisoindolin-4-yl)thio)heptanoyl)piperazin-1-yl)pyridin-2-yl)amino)-N,N-dimethyl-7H-pyrrolo[2,3-d]pyrimidine-6-carboxamide] | 0.04 to 0.2
